# Results as given in PMC9491098, “Discovery of novel drug-like antitubercular hits targeting the MEP pathway enzyme DXPS by strategic application of ligand-based virtual screening” (Chemical Science, 2022).
# Values joined by “and” are separate entries in the source; they are usually repeats but may differ in a detail not shown here. Equal entries are not always repeated. Where two headings read alike, the source gives them in different places.
# What was measured:
# DXPS = details: cited from earlier work
# E. coli = details: Fig. 1A; cited from earlier work
# IspD = details: read-out: Activity on target enzyme: IC50; cited from earlier work
# P. falciparum = details: Target pathogen: P. falciparum; Fig. 1A; ref 18–26 (fosmidomycin), 15,27–29 (BITZ, TZLP); cited from earlier work
# A549 = assay: toxicity against human cell lines; format: cell-based; details: A549, 48 h, read-out: Toxicity Human cell lines EC50 (μM) A549
# MtDXPS [1] = biological target: T1, MtDXPS (Mycobacterium tuberculosis, UniProt P9WNS3); assay: biochemical; details: for inhibitory activity against MtDXPS, SAR statement: SAR discussion of Table 1A–C
# DrDXPS (WT) [2] = biological target: T2, DrDXPS (WT) (Deinococcus radiodurans, UniProt Q9RUB5); assay: biochemical; format: biochemical; details: for inhibition at 100 µM: read-out: Inhibition % at 100 μM, Fig. 5E, DrDXPS (WT); for IC50: DrDXPS (WT) IC50, Fig. 2B
# [3] = metabolic stability in human liver S9 fraction; details: pooled liver S9 fraction
# Description: For vitro assessment of metabolic stability, 10 µL of each compound (10 µM) was
# incubated with human pooled liver S9-fraction (1 mg/mL, Corning, Corning, NY, USA)
# in a master mix containing 2 mM NADP, 10 mM glucose-6-phosphate, 10 U/mL
# glucose-6-phosphate dehydrogenase, 1 mM UDPGA, 0.1 mM PAPS, 10 mM MgCl2.
# acetonitrile containing diphenhydramine as internal standard at 4 °C. The supernatant
# was used for LC-MS analysis and half life time t1/2 was calculated from decreasing
# concentrations/peak areas.
# LC conditions: samples were analyzed with an Ultimate 3000 HPLC (Thermo Fisher,
# Waltham, MA, USA) coupled to a TSQ Quantum Access Max triple quadrupole mass
# spectrometer (Thermo Fisher, Waltham, MA, USA) in SRM mode. Analysis was
# performed on a Nucleodur C18 Pyramid column (3 µm, 2x150 mm, Macherey-Nagel,
# Düren, Germany) with a flow of 0.6 mL/min and a water (0.1% formic acid) and
# acetonitrile (0.1% formic acid) eluent system. Gradient as follows: 10% acetonitrile for
# 1 min, 10–90% acetonitrile over 0.7 min, 90% acetonitrile for 1.8 min, equilibration at
# 10% acetonitrile for 1 min.
# MS conditions: calibration of mass spectrometer parameters was performed
# individually for each compound:
# MtDXPS [4] = biological target: T1, MtDXPS
# [5] = test system: E. coli strain BL21 (DE3) pET22b-H6[…]; assay: microbe, parasite or virus in culture; format: cell-based; details: Escherichia coli, Fig. 6B
# [6] = test system: E. coli strain BL21 (DE3) pQEYAEM; assay: microbe, parasite or virus in culture; format: cell-based; details: Escherichia coli, Fig. 6A
# HEK293 = assay: toxicity against human cell lines; format: cell-based; details: HEK293, 48 h, read-out: Toxicity Human cell lines EC50 (μM) HEK293
# E. coli TolC = assay: microbe, parasite or virus in culture; format: cell-based; details: Escherichia coli
# MtDXPS [7] = biological target: T1, MtDXPS; assay: biochemical
# HepG2 = assay: toxicity against human cell lines; format: cell-based; details: HepG2, 48 h, read-out: Toxicity Human cell lines EC50 (μM) HepG2
# M. tuberculosis strains = assay: MIC against multiple M. tuberculosis strains, absolute concentration method on 7H10 agar; format: cell-based; details: Mycobacterium tuberculosis
# MtDXPS [8] = biological target: T1, MtDXPS; assay: microscale thermophoresis (MST) dissociation constant; format: binding; details: Fig. 4F
# Description: ETB + A <===> ETAB : Ka2 (Ka2 is the dissociation constant of pyruvate with […]
# ETA + B <===> ETAB : Kb2 (Kb2 is the dissociation constant of ThDP with DXPS) E + I <===> EI* : Ki* (Ki* is the Morrison inhibition constant of inhibitor with apoDXPS) ETAB ---> ET + P : kcat (kcat is the catalytic constant of DXPS) […]
# microscale thermophoresis (MST)
# MST measurements were performed on a Monolith NT.115 (NanoTemper
# Technologies GmbH, Germany) instrument using red-dye-NHS fluorescent labeling.
# Each purified MtDXPS sample was labeled with red-dye-NHS second generation dye, according to the supplied protocol. Measurements were performed in 100 m M Tris-HCl (pH 7.6) containing 0.05% Tween-20 and 5% DMSO in premium treated capillaries.
# The final concentration of each labeled protein in the assay was 100 n M. The inhibitors were titrated in 1:1 dilutions according to the supplier’s recommendations. All binding reactions were incubated at room temperature for 30 min before loading, and then pre-incubated for 5 min at room temperature after loading into the capillaries. Experiments were performed in duplicates, using 40% LED power, medium MST power, laser on time 20 s, and laser off time 3 s. Kds of the inhibitors were extracted from raw data at a 10–20 s on time according to the manufacturer’s instructions. A denaturation test was performed to exclude any nonspecific spectral interactions between the inhibitors […]
# The solutions were vortexed, and then the rest of the assay components was added in the following order: HEPES, pH = 8 (100 m M), bovine serum albumin (1 mg/mL), cysteine (2 mM), ThDP (0.325 μM), coenzyme-A (150 μM), TCEP (300 μM), pyruvate (150 μM) and MgCl2 (1 mM). […] Porcine PDH (final concentration of 0.01 U/ mL) was then added to initiate the reactions, which were monitored spectrophotometrically by measuring the […]
# mCherry-Mtb H37Rv = format: cell-based, Mycobacterium tuberculosis
# DrDXPS (WT) [9] = biological target: T2, DrDXPS (WT); details: pseudo-inhibitors; cited from earlier work
# MtDXPS [10] = biological target: T1, MtDXPS; details: cited from earlier work
# IspC = details: Target enzyme: IspC; Fig. 1A; cited from earlier work
# IspF = details: read-out: Activity on target enzyme: IC50; cited from earlier work
# [11] = [IPTG] 0.5 mM (MtDXPS overexpression)
# [12] = [IPTG] 0.5 mM (E. coli IspC overexpression)
# T2 sequence (Q9RUB5 whole entry, looked up): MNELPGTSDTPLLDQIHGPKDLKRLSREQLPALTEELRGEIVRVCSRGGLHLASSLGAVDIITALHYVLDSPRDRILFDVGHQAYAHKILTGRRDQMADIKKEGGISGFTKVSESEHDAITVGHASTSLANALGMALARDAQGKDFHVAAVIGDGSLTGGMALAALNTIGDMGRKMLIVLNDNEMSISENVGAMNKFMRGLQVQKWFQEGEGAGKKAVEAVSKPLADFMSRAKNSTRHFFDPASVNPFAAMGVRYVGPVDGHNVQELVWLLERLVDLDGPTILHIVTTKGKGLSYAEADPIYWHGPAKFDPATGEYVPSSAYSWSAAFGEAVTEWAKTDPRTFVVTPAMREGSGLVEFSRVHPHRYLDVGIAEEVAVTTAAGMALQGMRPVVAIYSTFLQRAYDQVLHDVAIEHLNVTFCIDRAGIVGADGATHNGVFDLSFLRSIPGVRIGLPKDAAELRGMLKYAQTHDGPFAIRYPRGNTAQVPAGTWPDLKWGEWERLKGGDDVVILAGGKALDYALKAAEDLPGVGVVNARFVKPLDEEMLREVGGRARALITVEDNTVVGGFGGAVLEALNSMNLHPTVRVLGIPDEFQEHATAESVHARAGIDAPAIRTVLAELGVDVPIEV
# T1 sequence (P9WNS3 whole entry, looked up): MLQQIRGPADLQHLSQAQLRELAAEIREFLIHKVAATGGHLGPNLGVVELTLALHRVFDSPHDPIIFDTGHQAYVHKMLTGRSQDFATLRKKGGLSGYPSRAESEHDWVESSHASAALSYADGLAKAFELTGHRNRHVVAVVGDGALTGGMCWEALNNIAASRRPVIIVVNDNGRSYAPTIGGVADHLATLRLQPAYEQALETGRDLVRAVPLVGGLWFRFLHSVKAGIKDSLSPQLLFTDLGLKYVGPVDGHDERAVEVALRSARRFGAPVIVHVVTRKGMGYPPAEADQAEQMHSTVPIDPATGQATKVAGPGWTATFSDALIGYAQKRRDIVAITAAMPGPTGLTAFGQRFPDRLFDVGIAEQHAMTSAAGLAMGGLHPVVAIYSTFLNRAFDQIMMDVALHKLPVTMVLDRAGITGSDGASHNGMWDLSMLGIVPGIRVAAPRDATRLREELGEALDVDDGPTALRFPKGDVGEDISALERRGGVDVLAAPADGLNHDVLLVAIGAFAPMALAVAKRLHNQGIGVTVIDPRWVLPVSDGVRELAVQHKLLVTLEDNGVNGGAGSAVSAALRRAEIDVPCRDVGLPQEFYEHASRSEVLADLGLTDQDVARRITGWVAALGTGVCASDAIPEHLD
smiles,measurement,setting,value
"CCCCOP(=O)(O)C(C)=O [BAP, Butylacetylphosphonate]",Ki,"DXPS; read-out: Activity on target enzyme: Ki, Fig. 1A",5.6 µM
same,Activity on target pathogen: MIC,E. coli,5 µM
Cc1ccc(-n2sc3ccccc3c2=O)cc1S(=O)(=O)N1CCOCC1 [BITZ],IC50,IspD,450 nM
same,EC50,P. falciparum,4300 nM
OCc1cn(Cc2ccc(Cl)c(Cl)c2)c2ccccc12 [Compound 7],EC50,A549,~50 µM
same,Ki,"MtDXPS [1]; K i* (μM), Table 1A, indole derivatives, MtDXPS",1.3 ± 0.2 µM
same,Ki,"MtDXPS [1]; Morrison constant Ki* against MtDXPS, two-step tight-binding Morrison model, Dynafit, text and Fig. 4C–E",1.29 µM
same,inhibition at 100 µM,"DrDXPS (WT) [2]; [ThDP] 0.1 μM (1.6x Km), [PYR] 0.5 mM (2.4x), [D-GAP] […] (1.5x)",63 ± 4%
same,inhibition at 100 µM,"DrDXPS (WT) [2]; [ThDP] 0.1 μM (1.6x Km), [PYR] […] (1.2x), [D-GAP] 0.5 mM (2.9x)",51 ± 3%
same,inhibition at 100 µM,"DrDXPS (WT) [2]; [ThDP] 0.1 μM (1.6x Km), [PYR] […] (1.2x), [D-GAP] […] (1.5x)",61 ± 5%
same,inhibition at 100 µM,"DrDXPS (WT) [2]; [ThDP] 0.2 μM (3.2x Km), [PYR] […] (1.2x), [D-GAP] […] (1.5x)",48 ± 4%
same,half-life at 10 µM,[3],6 ± 2 min
same,hit validation (false-positive check),MtDXPS [4],true inhibitors
same,MIC,[5]; [IPTG] 0 mM,10 ± 3 µM
same,MIC,[5]; [11],14 ± 2 µM
same,MIC,[6]; [IPTG] 0 mM,13 ± 1 µM
same,MIC,[6]; [12],10 ± 2 µM
same,EC50,HEK293,16 ± 7 µM
same,MIC,E. coli TolC,22 ± 1 µM
same,IC50,MtDXPS [7]; IC50 (μM),34 ± 4 µM
same,IC50,MtDXPS [7]; IC50 against MtDXPS,34 µM and 82 µM
same,IC50,MtDXPS [7]; IC50 against MtDXPS (MOI study),12 µM and 34 µM and 33 µM and 59 µM
same,mode of inhibition on MtDXPS,"MtDXPS [7]; MOI study, comparison of IC50 under varied [ThDP], [PYR], [D-GAP]","competitive with ThDP and D-GAP, but non-competitive with PYR"
same,equilibration time (slow-binding),"MtDXPS [7]; time-dependent progress curves, Fig. 4A, inhibitor 100 µM",~100 s
same,EC50,HepG2,0.8 ± 0.2 µM
same,MIC,M. tuberculosis strains; read-out: Antitubercular activity Strain & MIC (μM) A,10 µM
same,MIC,M. tuberculosis strains; read-out: Antitubercular activity Strain & MIC (μM) B,10 µM
same,MIC,M. tuberculosis strains; read-out: Antitubercular activity Strain & MIC (μM) C,5 µM
same,MIC,M. tuberculosis strains; read-out: Antitubercular activity Strain & MIC (μM) D,5 to 10 µM
same,MIC,M. tuberculosis strains; read-out: Antitubercular activity Strain & MIC (μM) E,5 to 10 µM
same,MIC,M. tuberculosis strains; read-out: Antitubercular activity Strain & MIC (μM) F,5 to 10 µM
same,Kd,MtDXPS [8],1370 nM
OCc1cn(Cc2ccc(Cl)c(Cl)c2)c2ccc(F)cc12 [Compound 17],EC50,A549,> 50 µM
same,"inhibitory activity against MtDXPS, SAR statement",MtDXPS [1],more active than their parent molecules
same,Ki,"MtDXPS [1]; Table 1A, indole derivatives, MtDXPS, read-out: K i*",0.4 ± 0.06 µM
same,activity against M. tuberculosis strains,mCherry-Mtb H37Rv,no activity
same,half-life at 10 µM,[3],27 ± 10 min
same,EC50,HEK293,> 50 µM
same,EC50,HepG2,> 50 µM
Nc1ccc(/C(Cc2ccc(Cl)cc2)=N/O)c(O)c1 [Compound 25],EC50,A549,~50 µM
same,"inhibitory activity against MtDXPS, SAR statement",MtDXPS [1],more active than their parent molecules
same,Ki,"MtDXPS [1]; Table 1B, oxime derivatives, MtDXPS, read-out: K i*",0.1 ± 0.03 µM
same,activity against M. tuberculosis strains,mCherry-Mtb H37Rv,retains some activity
same,half-life at 10 µM,[3],56 ± 0.4 min
same,EC50,HEK293,18 ± 5.5 µM
same,EC50,HepG2,0.73 ± 0.12 µM
"Cc1ncc(Cc2csc(CCO)c2C)c(N)n1 [DZT, deazathiamine, reference compound]",IC50,"DrDXPS (WT) [2]; [ThDP] 0.1 μM (1.6x Km), [PYR] 0.5 mM (2.4x), [D-GAP] 0.5 mM (2.9x)",273 ± 16 µM
same,IC50,"DrDXPS (WT) [2]; [ThDP] 0.5 μM (8x Km), [PYR] 0.5 mM (2.4x), [D-GAP] 1.0 mM (5.8x)",1210 ± 156 µM
same,IC50,"DrDXPS (WT) [2]; [ThDP] 0.5 μM (8x Km), [PYR] […] (1.2x), [D-GAP] 0.5 mM (2.9x)",486 ± 136 µM
same,IC50,"DrDXPS (WT) [2]; reference condition [ThDP] 0.5 μM (8x Km), [PYR] 0.5 mM (2.4x), [D-GAP] 0.5 mM (2.9x)",845 ± 177 µM
same,mode of inhibition on DrDXPS,"DrDXPS (WT) [2]; MOI study, Fig. 2B","competitive with ThDP, PYR and D-GAP"
same,inhibition of DrDXPS,DrDXPS (WT) [9],weak inhibitor
same,activity against MtDXPS,MtDXPS [10],not active
same,IC50,MtDXPS [7],> 4000 µM
"O=CN(O)CCCP(=O)(O)O [Fosmidomycin, fosmidomycin, reference compound]",EC50,P. falciparum,980 nM
same,MIC,[5]; [IPTG] 0 mM,56 ± 8 µM
same,MIC,[5]; [11],59 ± 10 µM
same,IC50,IspC,350 nM
same,MIC,[6]; [IPTG] 0 mM,76 ± 14 µM
same,MIC,[6]; [12],> 1000 µM
"CC1(C)C(=O)ON(Cc2ccccc2Cl)C1=O [Ketoclomazone, ketoclomazone]",IC50,"DXPS; read-out: Activity on target enzyme: IC50, Fig. 1A",1000 nM
CCOC(=O)C1=C(C)N=c2s/c(=C\c3cc(Br)c(O)c(Br)c3)c(=O)n2C1c1cccs1 (stereo not drawn) [TZLP],IC50,IspF,9.6 µM
same,EC50,P. falciparum,1500 nM
